The record followed here is ChEMBL document CHEMBL1201862, “PubChem BioAssay data set” (2004).

A word on the EC50: it is the midpoint of the concentration-response curve. By IC50 is commonly meant the midpoint of a concentration-inhibition curve. A word on the AC50: it is the concentration giving half of the maximal activity seen.

The subject of assay [1] is Streptococcus sp. 'group A'. In words: growth inhibition of control SK(-) GAS strain, dose response, counter-screen for streptokinase expression inhibitor project, luminescence, kanamycin, BacTiterGlo, confirmation (AID 1900). It is filed as functional, organism-based. (In general: A counterscreen serves to expose hits that act by an unwanted route or on another target.)

The subject of the next assay is H4. In words: Luminescence Cell-Based Dose Response HTS to Identify Activators of 5'UTR Stem-Loop Driven Prion Protein mRNA Translation in H4 Neuroglioblastoma Cells. [Related pubchem assays: 1829 (Project Summary), 1814 (Primary HTS)]. It is filed as functional. The conditions noted are these: Homo sapiens.
The target in a further assay is T1, Streptokinase A (Streptococcus pyogenes serotype M1, UniProt P10520).
T1 sequence (P10520 whole entry): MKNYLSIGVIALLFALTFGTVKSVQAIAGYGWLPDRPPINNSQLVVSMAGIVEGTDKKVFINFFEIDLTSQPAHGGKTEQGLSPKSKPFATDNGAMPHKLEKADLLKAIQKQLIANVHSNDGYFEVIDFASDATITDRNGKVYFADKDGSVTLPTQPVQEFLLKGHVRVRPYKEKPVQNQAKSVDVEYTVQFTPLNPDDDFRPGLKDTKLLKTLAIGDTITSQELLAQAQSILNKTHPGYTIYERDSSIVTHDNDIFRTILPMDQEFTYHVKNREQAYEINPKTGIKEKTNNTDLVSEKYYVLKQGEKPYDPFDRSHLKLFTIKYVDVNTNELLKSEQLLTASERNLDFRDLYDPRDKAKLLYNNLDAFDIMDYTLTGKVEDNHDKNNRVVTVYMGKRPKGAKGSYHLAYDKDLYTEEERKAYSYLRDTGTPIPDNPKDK
The experiment in a line: S. pyogenes streptokinase expression inhibitors, potency, dose response, plasminogen activation absorbance, OD405 (AID 1914).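 Note: secreted streptokinase activity via plasminogen activation per viability signal from cell pellet.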 Type of assay: functional, Streptococcus pyogenes M1 GAS.

Assay [2] is described as follows: inhibitors of intracellular T. cruzi replication, confirmation, NIH3T3 host cells, beta-gal luminescence (AID 2044).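 Note: intracellular parasites grown in NIH/3T3 mouse fibroblasts as host cells; luminescent beta-galactosidase reporter signal from transgenic T. cruzi replicating inside host cells; inhibitors lower the luminescence signal.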 Type of assay: functional, cell-based.
The nature of assay [3]: cytotoxicity toward NIH3T3 fibroblasts, dose response, counter-screen, cell-based, ATP luminescence, mouse fibroblasts (AID 2010).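 Note: cells exposed to compound for about 90 hours before reading.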 It is filed as functional.
Another assay has as its system Streptococcus. In words: Group A Streptococcus viability loss, dose response, counter-screen for streptokinase expression inhibitor project, luminescence, BacTiterGlo (AID 1915).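 Note: potency for reduction of bacterial viability or growth.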 It is filed as functional, organism-based.
For assay [4], the target named is Eukaryotic translation initiation factor 4E (Mus musculus, UniProt P63073). In words: eIF4E–eIF4G protein interaction inhibitors, dose response, biochemical, TR-FRET (AID 855).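 Note: potency for disrupting eIF4E binding to eIF4GI seen as loss of FRET.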 It is filed as functional. A general note: TR-FRET usually uses a lanthanide donor and a delayed reading to cut background.
A further assay can be described thus: cells. It is filed as functional, cell-based.
The nature of assay [5]: Counterscreen for AddAB inhibitors: absorbance-based bacterial cell-based high throughput dose response assay for inhibitors of bacterial viability. [Related pubchem assays (depositor defined):AID435030, AID449728, AID449731, AID488942, AID488955, AID488956]. Type of assay: functional.
For assay [6], the target named is Heat shock protein HSP 90-alpha (Homo sapiens, UniProt P07900). It is filed as functional, organism-based.
For assay [7], the system named is HEK293. The experiment in a line: cytotoxicity in HEK293T NF-kB-Luc cells, SAR follow-up, cytotoxicity control for NF-kB activator project, cell-based, resazurin fluorescence (AID 493251). Type of assay: functional. (The colour change of resazurin is a common sign of viable cells or microbes.)
The next assay has as its system Jurkat. In words: SAR Analysis of small molecule inhibitors of T-cell specific antigen receptor-induced NF-kB activation in a Jurkat cell line using a luminescence assay - Set 2. [Related pubchem assays (depositor defined):AID435003, AID435012, AID465]. It is filed as functional, cell-based. The following applies: Homo sapiens.
In assay [8] the test system is HEK293. The experiment in a line: SAR Analysis of small molecule inhibitors of T-cell specific antigen receptor-induced NF-kB activation in a HEK-293T cell line using a luminescence assay - Set 2. [Related pubchem assays (depositor defined):AID435003, AID435012, AID489026]. It is filed as functional, cell-based. The following applies: Homo sapiens.
The nature of assay [9]: Shn3 3'UTR reporter inhibitors, dose response, cell-based, Clone20 osteoblasts, firefly luciferase, cherry-picked (AID 624132).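 Note: firefly luciferase luminescence from reporter carrying the Shn3 3'UTR in osteoblasts.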 Type of assay: functional.
Assay [10] in a line: HepG2 cell cytotoxicity, dose response, cytotoxicity control for Shn3 inhibitor project, CellTiter-Glo, cherry-picked (AID 624134). It is filed as functional, cell-based.
The nature of assay [11]: control 3'UTR Renilla luciferase suppression, dose response, counter-screen for Shn3 inhibitor project, cell-based, Clone20-Shn3RL, cherry-picked (AID 624133). It is filed as functional.
The target of assay [12] is T2, Histone-lysine N-methyltransferase NSD2 (Homo sapiens, UniProt O96028).
T2 sequence (O96028 whole entry): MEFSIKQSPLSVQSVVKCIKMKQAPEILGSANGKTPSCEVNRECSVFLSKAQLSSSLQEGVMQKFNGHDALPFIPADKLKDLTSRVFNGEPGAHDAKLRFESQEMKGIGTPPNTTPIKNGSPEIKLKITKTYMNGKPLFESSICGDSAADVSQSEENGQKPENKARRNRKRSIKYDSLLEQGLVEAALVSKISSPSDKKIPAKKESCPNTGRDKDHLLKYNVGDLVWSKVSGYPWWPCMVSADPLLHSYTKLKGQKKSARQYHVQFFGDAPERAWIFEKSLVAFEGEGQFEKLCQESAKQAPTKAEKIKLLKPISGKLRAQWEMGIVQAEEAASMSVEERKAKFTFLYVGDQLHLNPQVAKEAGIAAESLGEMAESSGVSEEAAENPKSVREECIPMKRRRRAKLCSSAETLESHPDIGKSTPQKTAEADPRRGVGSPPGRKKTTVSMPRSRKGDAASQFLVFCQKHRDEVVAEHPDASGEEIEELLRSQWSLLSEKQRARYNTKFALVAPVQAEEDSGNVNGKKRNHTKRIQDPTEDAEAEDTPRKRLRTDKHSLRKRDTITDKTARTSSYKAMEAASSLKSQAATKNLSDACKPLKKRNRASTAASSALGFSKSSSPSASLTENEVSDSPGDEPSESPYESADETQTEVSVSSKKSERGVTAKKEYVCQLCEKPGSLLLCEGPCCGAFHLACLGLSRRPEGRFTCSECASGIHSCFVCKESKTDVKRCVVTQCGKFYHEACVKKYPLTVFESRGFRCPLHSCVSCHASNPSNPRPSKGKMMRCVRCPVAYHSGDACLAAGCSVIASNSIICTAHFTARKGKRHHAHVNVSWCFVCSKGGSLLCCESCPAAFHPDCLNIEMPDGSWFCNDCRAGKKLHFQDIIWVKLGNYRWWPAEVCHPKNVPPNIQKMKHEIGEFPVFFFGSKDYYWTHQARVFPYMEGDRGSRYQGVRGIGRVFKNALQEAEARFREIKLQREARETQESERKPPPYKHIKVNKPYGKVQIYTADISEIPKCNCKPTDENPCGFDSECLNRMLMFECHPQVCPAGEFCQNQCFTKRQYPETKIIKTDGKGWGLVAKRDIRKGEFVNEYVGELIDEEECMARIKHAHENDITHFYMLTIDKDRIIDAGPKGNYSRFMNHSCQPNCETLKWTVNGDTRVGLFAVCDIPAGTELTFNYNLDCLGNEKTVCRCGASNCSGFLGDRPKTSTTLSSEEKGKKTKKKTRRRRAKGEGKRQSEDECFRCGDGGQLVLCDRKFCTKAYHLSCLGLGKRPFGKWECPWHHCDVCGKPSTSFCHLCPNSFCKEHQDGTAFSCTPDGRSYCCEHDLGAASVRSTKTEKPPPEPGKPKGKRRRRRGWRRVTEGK
It is filed as biochemical.

Activity calls are given as the source filed them. Bounds are passed on as bounds.

Sequence of Eukaryotic translation initiation factor 4E (P63073 whole entry): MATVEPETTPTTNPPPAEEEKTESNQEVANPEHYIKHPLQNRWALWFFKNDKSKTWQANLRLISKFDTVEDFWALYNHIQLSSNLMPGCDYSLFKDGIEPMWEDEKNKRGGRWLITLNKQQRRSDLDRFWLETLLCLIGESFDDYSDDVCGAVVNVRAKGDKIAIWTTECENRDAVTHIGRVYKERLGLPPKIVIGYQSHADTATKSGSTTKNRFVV

With `Cc1ccc(-n2sc3ccccc3c2=O)cc1`, the EC50 was 1.02 µM (active) in assay [1]; 88.2 µM (active) with H4; > 150 µM (not active) at Streptokinase A; 0.361 µM (active) in assay [2]; 9.71 µM (active) in assay [3]; 3.63 µM (active) with Streptococcus. Also, the IC50 in assay [4] is 15.2 µM (active).
On to `CCC(=O)NC(c1ccc(C)cc1)c1ccc2cccnc2c1O` (configuration not stated), for which the EC50 in the assay “cells” is 4.3 µM (active); in assay [2], 0.481 µM (active); in assay [3], 0.687 µM (active). In addition, the IC50 in [5] is > 119 µM (inactive); in the assay with HEK293 [7] (Homo sapiens, HEK293), 12.9 µM (active); with Jurkat it was 3.26 µM (active); with HEK293 [8] it was 7.02 µM (active). The half-maximal activity concentration (AC50) was 3.35 µM (active) in [6], 0.704 µM (active) in [9], 1.24 µM (active) in assay [10] and 0.383 µM (active) in assay [11].
Regarding `N/C(=N\N=C/c1ccc(-c2ccc(O)c(C(=O)O)c2)o1)N[N+](=O)[O-]`, the IC50 in assay [4] is 63.6 µM (inactive). For the same compound, the AC50 in [12] was 7.57 µM (active).
On to `CC(=O)N(/N=C1\Sc2ccccc2C1=O)c1ccccc1C`, for which the EC50 in the assay on H4 was 33.4 µM (active). The AC50 in assay [12] is 0.548 µM (active).
On to `CCCC(=O)NC(c1ccc(Cl)cc1)c1ccc2cccnc2c1O` (configuration not stated), for which the EC50 in [1] is 2.17 µM (active); in “cells”, 5.77 µM (active); on Streptokinase A it was > 150 µM (not active); in [2] it was 0.226 µM (active); in [3], 0.425 µM (active); in the assay on Streptococcus, 30.1 µM (active). Moreover, the IC50 in assay [5] was > 119 µM (inactive); in the assay with HEK293 [7] (Homo sapiens, HEK293), 8.63 µM (active); with HEK293 [7] (hek293) it was 9.55 µM (active); in the assay with Jurkat, 2.84 µM (active); in the assay on HEK293 [8], 4.23 µM (active). In addition, the concentration at half-maximal activity (AC50) was 4.04 µM (active) in [6], 0.937 µM (active) in assay [9], 1.17 µM (active) in [10] and 2.72 µM (active) in assay [11].
